Results as given in article PMC4113732, “Novel Preclinical and Radiopharmaceutical Aspects of [^68Ga]Ga-PSMA-HBED-CC: A New PET Tracer for Imaging of Prostate Cancer” (Pharmaceuticals, 2014).

Molecular target: T1, prostate-specific membrane antigen (PSMA) (Homo sapiens, UniProt Q04609)
T1 construct: gene FOLH1
Test: competitive radioligand binding on intact PSMA-expressing LNCaP cells against [^[…]]Ga-PSMA-HBED-CC
Type: cell-based

T1 sequence (Q04609 whole entry): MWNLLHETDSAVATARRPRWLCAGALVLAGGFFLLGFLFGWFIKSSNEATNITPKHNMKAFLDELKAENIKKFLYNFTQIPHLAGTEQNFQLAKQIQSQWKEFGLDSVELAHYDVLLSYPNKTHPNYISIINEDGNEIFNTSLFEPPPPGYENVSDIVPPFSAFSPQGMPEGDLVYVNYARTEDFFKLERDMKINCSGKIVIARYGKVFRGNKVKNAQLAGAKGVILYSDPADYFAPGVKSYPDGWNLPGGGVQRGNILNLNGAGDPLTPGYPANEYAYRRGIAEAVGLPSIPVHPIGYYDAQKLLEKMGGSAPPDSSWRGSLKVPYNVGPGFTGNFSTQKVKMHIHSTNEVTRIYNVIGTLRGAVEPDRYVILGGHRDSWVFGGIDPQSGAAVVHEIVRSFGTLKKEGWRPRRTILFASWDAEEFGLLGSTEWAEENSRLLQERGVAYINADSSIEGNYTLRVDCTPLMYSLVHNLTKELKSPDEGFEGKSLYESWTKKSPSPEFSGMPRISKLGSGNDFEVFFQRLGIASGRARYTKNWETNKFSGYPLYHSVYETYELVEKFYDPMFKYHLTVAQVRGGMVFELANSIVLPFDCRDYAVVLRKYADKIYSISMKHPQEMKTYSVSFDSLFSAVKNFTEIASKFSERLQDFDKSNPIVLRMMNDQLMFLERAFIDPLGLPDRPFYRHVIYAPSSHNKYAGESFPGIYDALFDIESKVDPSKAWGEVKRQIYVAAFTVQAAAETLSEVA

Question: With O=C(O)CCc1ccc2c(c1)CN1CCN(CC(=O)O)Cc3cc(CCC(=O)NCCCCCC(=O)NCCCC[C@H](NC(=O)N[C@@H](CCC(=O)O)C(=O)O)C(=O)O)ccc3[O][Ga]([O]C(=O)C1)[O]2 [[^natGa]Ga-PSMA-HBED-CC] as the molecule, how does the IC50 read?
Answer: 0.0248 ± 0.0012 µM
